This is an account of results in US20090036448A1, “PYRIMIDINE DERIVATIVES AND METHODS OF TREATMENT RELATED TO THE USE THEREOF” (TAISHO PHARMECUTICAL CO., LTD., priority 2004, published 2009).

For the test, the target named is MCH receptor (Homo sapiens, UniProt Q99705). Kind of test: Receptor binding assay with Radiolabelled MCH Ligand. Details: expressed in transfected cells; host or cells: 293 cells (human kidney, ATCC), transient transfection; crude membranes. Conditions: class by percent of control at 10^-7 M or IC50. The essentials: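 Membranes from 293 cells transiently transfected with human MCH receptor competed test compounds against a radiolabelled MCH ligand in Tris-HCl pH 7.4 with MgCl2 and EDTA for 60–120 min at room temperature. Filtration and scintillation counting followed, with cold MCH defining nonspecific binding. IC50 came from logit-log plots of %B/B0, and Ki from the Cheng-Prusoff equation.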
Chain of MCH receptor (Q99705 whole entry): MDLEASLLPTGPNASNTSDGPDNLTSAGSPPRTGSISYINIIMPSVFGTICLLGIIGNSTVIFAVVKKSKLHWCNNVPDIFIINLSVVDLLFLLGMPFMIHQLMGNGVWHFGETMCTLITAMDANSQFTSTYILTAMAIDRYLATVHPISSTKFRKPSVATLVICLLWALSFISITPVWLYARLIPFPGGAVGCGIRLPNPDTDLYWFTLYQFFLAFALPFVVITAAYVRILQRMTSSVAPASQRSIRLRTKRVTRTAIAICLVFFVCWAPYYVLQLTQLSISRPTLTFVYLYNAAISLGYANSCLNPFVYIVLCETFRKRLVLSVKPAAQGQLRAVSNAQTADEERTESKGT

Consider `Cc1nc(N[C@H]2CC[C@@H](NS(=O)(=O)Cc3ccccc3)CC2)cc(N(C)C)n1` [compound 476], for which the class is 3 (Class 3: The value of percent of control at 10^−7 M was more than 60% or the value of IC50 was more than 200 nM.).

Turning to `Cc1nc(N[C@H]2CC[C@@H](NS(=O)(=O)Cc3ccccc3[N+](=O)[O-])CC2)cc(N(C)C)n1` [compound 475], the class was 3 (Class 3: The value of percent of control at 10^−7 M was more than 60% or the value of IC50 was more than 200 nM.). With `Cc1nc(N[C@H]2CC[C@@H](NC(=O)c3ccc(S(C)(=O)=O)cc3)CC2)cc(N(C)C)n1` [compound 343], the class was 3 (Class 3: The value of percent of control at 10^−7 M was more than 60% or the value of IC50 was more than 200 nM.). Consider `Cc1nc(N[C@H]2CC[C@@H](NCc3cc4ccccc4s3)CC2)cc(N(C)C)n1` [compound 357], for which the class is 3 (Class 3: The value of percent of control at 10^−7 M was more than 60% or the value of IC50 was more than 200 nM.). Consider `Cc1nc(N[C@H]2CC[C@@H](NC(=O)c3ccccc3C(=O)N[C@@H](C)c3ccccc3)CC2)cc(N(C)C)n1` [compound 328], for which the class is reported as 3 (Class 3: The value of percent of control at 10^−7 M was more than 60% or the value of IC50 was more than 200 nM.).

`Cc1nc(N[C@H]2CC[C@@H](NC(=O)C3C[C@@H](c4ccccc4)CC[C@H]3C(=O)c3ccccc3)CC2)cc(N(C)C)n1` (stereo partly shown) [compound 351]: the class is given as 3 (Class 3: The value of percent of control at 10^−7 M was more than 60% or the value of IC50 was more than 200 nM.). In the case of `Cc1nc(N[C@H]2CC[C@@H](NS(=O)(=O)c3cccc4ccccc34)CC2)cc(N(C)C)n1` [compound 505], the class is given as 3 (Class 3: The value of percent of control at 10^−7 M was more than 60% or the value of IC50 was more than 200 nM.).

Turning to `Cc1nc(N[C@H]2CC[C@@H](NC(=O)COc3cccc4c(C)cc(=O)oc34)CC2)cc(N(C)C)n1` [compound 273], the class was 3 (Class 3: The value of percent of control at 10^−7 M was more than 60% or the value of IC50 was more than 200 nM.). To `Cc1nc(N[C@H]2CC[C@@H](NS(=O)(=O)c3ccc(Cl)c4nonc34)CC2)cc(N(C)C)n1` [compound 521] belongs 3 (Class 3: The value of percent of control at 10^−7 M was more than 60% or the value of IC50 was more than 200 nM.); to `Cc1nc(N[C@H]2CC[C@@H](NS(=O)(=O)c3ccc(Cc4ncc(C(F)(F)F)cc4Cl)s3)CC2)cc(N(C)C)n1` [compound 510], 3 (Class 3: The value of percent of control at 10^−7 M was more than 60% or the value of IC50 was more than 200 nM.).

Regarding `Cc1nc(N[C@H]2CC[C@@H](NCCCc3ccccc3)CC2)cc(N(C)C)n1` [compound 403], the class is reported as 3 (Class 3: The value of percent of control at 10^−7 M was more than 60% or the value of IC50 was more than 200 nM.). On to `COC(=O)c1cc(S(=O)(=O)N[C@H]2CC[C@@H](Nc3cc(N(C)C)nc(C)n3)CC2)oc1C` [compound 508], for which the class is given as 3 (Class 3: The value of percent of control at 10^−7 M was more than 60% or the value of IC50 was more than 200 nM.). To `COC(=O)c1ccc(C(=O)N[C@H]2CC[C@@H](Nc3cc(N(C)C)nc(C)n3)CC2)cc1` [compound 227] belongs 3 (Class 3: The value of percent of control at 10^−7 M was more than 60% or the value of IC50 was more than 200 nM.); to `C=CCOC(=O)N[C@H]1CC[C@@H](Nc2cc(N(C)C)nc(C)n2)CC1` [compound 462], 3 (Class 3: The value of percent of control at 10^−7 M was more than 60% or the value of IC50 was more than 200 nM.); to `CCc1cccc(CC)c1NC(=S)N[C@H]1CC[C@@H](Nc2cc(N(C)C)nc(C)n2)CC1` [compound 438, N-(2,6-diethylphenyl)-N′-(cis-4-{[6-(dimethylamino)-2-methylpyrimidin-4-yl]amino}cyclohexyl)thiourea], 2 (Class 2: The value of percent of control at 10^−7 M was from 40% to 60% or the value of IC50 was from 50 nM to 200 nM.). For `Cc1nc(N[C@H]2CC[C@@H](NC(=O)C3CCCC[C@@H]3NC(=O)c3ccccc3)CC2)cc(N(C)C)n1` (stereo partly shown) [compound 276], the class was 3 (Class 3: The value of percent of control at 10^−7 M was more than 60% or the value of IC50 was more than 200 nM.). To `COc1ccc(CCCC(=O)N[C@H]2CC[C@@H](Nc3cc(N(C)C)nc(C)n3)CC2)cc1OC` [compound 340] belongs 3 (Class 3: The value of percent of control at 10^−7 M was more than 60% or the value of IC50 was more than 200 nM.); to `Cc1nc(N[C@H]2CC[C@@H](NC(=O)c3ccc(F)cc3)CC2)cc(N(C)C)n1` [compound 221, N-(cis-4-{[6-(dimethylamino)-2-methylpyrimidin-4-yl]amino}cyclohexyl)-4-fluorobenzamide], 3 (Class 3: The value of percent of control at 10^−7 M was more than 60% or the value of IC50 was more than 200 nM.); to `Cc1nc(N[C@H]2CC[C@@H](NC(=O)c3ccc(N(C)C)cc3)CC2)cc(N(C)C)n1` [compound 217], 3 (Class 3: The value of percent of control at 10^−7 M was more than 60% or the value of IC50 was more than 200 nM.).

For the compound `Cc1nc(N[C@H]2CC[C@@H](NCC3CC3)CC2)cc(N(C)C)n1` [compound 362], the class is given as 3 (Class 3: The value of percent of control at 10^−7 M was more than 60% or the value of IC50 was more than 200 nM.). In the case of `COc1ccc2c(c1)C(CC(=O)N[C@H]1CC[C@@H](Nc3cc(N(C)C)nc(C)n3)CC1)CC2=O` (relative stereo) [compound 290] it was 3 (Class 3: The value of percent of control at 10^−7 M was more than 60% or the value of IC50 was more than 200 nM.); in that of `Cc1nc(N[C@H]2CC[C@@H](NC(=S)Nc3ccc(I)cc3)CC2)cc(N(C)C)n1` [compound 449], 3 (Class 3: The value of percent of control at 10^−7 M was more than 60% or the value of IC50 was more than 200 nM.).

As for `COc1ccc(NC(=S)N[C@H]2CC[C@@H](Nc3cc(N(C)C)nc(C)n3)CC2)c(OC)c1` [compound 444], the class was 3 (Class 3: The value of percent of control at 10^−7 M was more than 60% or the value of IC50 was more than 200 nM.). Regarding `Cc1nc(N[C@H]2CC[C@@H](NCc3ccc(F)c(F)c3)CC2)cc(N(C)C)n1` [compound 369], the class is listed as 3 (Class 3: The value of percent of control at 10^−7 M was more than 60% or the value of IC50 was more than 200 nM.).

As for `Cc1nc(N[C@H]2CC[C@@H](NCc3ccno3)CC2)cc(N(C)C)n1` [compound 374], the class is recorded as 3 (Class 3: The value of percent of control at 10^−7 M was more than 60% or the value of IC50 was more than 200 nM.). To `COCCOC(=O)N[C@H]1CC[C@@H](Nc2cc(N(C)C)nc(C)n2)CC1` [compound 457] belongs 3 (Class 3: The value of percent of control at 10^−7 M was more than 60% or the value of IC50 was more than 200 nM.). In the case of `Cc1nc(N[C@H]2CC[C@@H](NC(=O)c3ccccc3C(=O)c3ccc(F)cc3)CC2)cc(N(C)C)n1` [compound 304] it was 3 (Class 3: The value of percent of control at 10^−7 M was more than 60% or the value of IC50 was more than 200 nM.); in that of `Cc1nc(N[C@H]2CC[C@@H](NC(=O)Cc3ccccc3Br)CC2)cc(N(C)C)n1` [compound 264], 3 (Class 3: The value of percent of control at 10^−7 M was more than 60% or the value of IC50 was more than 200 nM.); in that of `Cc1nc(N[C@H]2CC[C@@H](NS(=O)(=O)c3ccc(C)c(Cl)c3)CC2)cc(N(C)C)n1` [compound 485], 3 (Class 3: The value of percent of control at 10^−7 M was more than 60% or the value of IC50 was more than 200 nM.). As to `Cc1nc(N[C@H]2CC[C@@H](NC(=O)c3ccc(-c4ccccc4)cc3)CC2)cc(N(C)C)n1` [compound 201], the class is listed as 3 (Class 3: The value of percent of control at 10^−7 M was more than 60% or the value of IC50 was more than 200 nM.). To `Cc1nc(N[C@H]2CC[C@@H](NC(=O)Nc3c(F)cc(Br)cc3Br)CC2)cc(N(C)C)n1` [compound 431] belongs 3 (Class 3: The value of percent of control at 10^−7 M was more than 60% or the value of IC50 was more than 200 nM.). Turning to `Cc1nc(N[C@H]2CC[C@@H](NC(=O)c3ccc(Oc4ccccc4)cc3)CC2)cc(N(C)C)n1` [compound 326], the class is 3 (Class 3: The value of percent of control at 10^−7 M was more than 60% or the value of IC50 was more than 200 nM.). In the case of `Cc1nc(N[C@H]2CC[C@@H](NCc3ccc(Br)cc3)CC2)cc(N(C)C)n1` [compound 358] it was 3 (Class 3: The value of percent of control at 10^−7 M was more than 60% or the value of IC50 was more than 200 nM.); in that of `COc1ccc2[nH]c(C(=O)N[C@H]3CC[C@@H](Nc4cc(N(C)C)nc(C)n4)CC3)cc2c1` [compound 293], 3 (Class 3: The value of percent of control at 10^−7 M was more than 60% or the value of IC50 was more than 200 nM.); in that of `COc1cc(NC(=O)N[C@H]2CC[C@@H](Nc3cc(N(C)C)nc(C)n3)CC2)cc(OC)c1OC` [compound 425, N-(cis-4-{[6-(dimethylamino)-2-methylpyrimidin-4-yl]amino}cyclohexyl)-N′-(3,4,5-trimethoxyphenyl)urea], 1 (Class 1: The value of percent of control at 10^−7 M was less than 40% or the value of IC50 was less than 50 nM.). In the case of `Cc1nc(N[C@H]2CC[C@@H](NC[C@H](Cc3ccccc3)NS(=O)(=O)c3cccc4ccccc34)CC2)cc(N(C)C)n1` [compound 404], the class is given as 3 (Class 3: The value of percent of control at 10^−7 M was more than 60% or the value of IC50 was more than 200 nM.). To `Cc1nc(N[C@H]2CC[C@@H](NCc3ccc(C(C)(C)C)cc3)CC2)cc(N(C)C)n1` [compound 356] belongs 3 (Class 3: The value of percent of control at 10^−7 M was more than 60% or the value of IC50 was more than 200 nM.).
